In patent publication US8017612B2, “Piperazine compound and use thereof as a HCV polymerase inhibitor” (priority 2006, dated 2011) one finds IC50 data, which are given here for 24 molecules.

Counter-ions that a name gives are not always drawn.

Assay [1] has as its target T1, HCV polymerase (NS5B) type 1b (Hepatitis C virus genotype 1b, UniProt P26663).
T1 construct: a region encoding NS5B (J Virol 1991 March, 65(3), 1105-13, 544 amino acids after deletion of 47 amino acids on the C-terminal); 6xHis (C); made in house; host or cells: Escherichia coli
Nature of the assay: Assay of enzyme (HCV polymerase) inhibitory activity, type 1b enzyme. The assay is classed as biochemical, HCV BK strain (type 1b). Conditions: HCV polymerase inhibitory activity (IC50), 1b, type 1b enzyme 0.5 μg/ml, 25° C., 60 min. A digest of the protocol:
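His-tagged, C-terminally truncated NS5B (BK strain, 1b; 0.5 μg/ml) incubated with compound 60 min at 25 °C on 3′UTR-derived substrate RNA (5 μg/ml), 50 μM ATP/GTP/CTP, 2 μM UTP plus [3H]UTP, pH 7.5. Acid-precipitated RNA counted; IC50 from radioactivity with and without compound.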

The target in assay [2] is T2, HCV polymerase (NS5B) type 1a (Hepatitis C virus genotype 1a, UniProt P26664).
T2 construct: made in house; host or cells: Escherichia coli (by the 'similar method' of the 1b enzyme)
The assay can be described thus: Assay of enzyme (HCV polymerase) inhibitory activity, type 1a enzyme. The assay is classed as biochemical, HCV type 1a (cloned from the blood of patients). The settings on record: HCV polymerase inhibitory activity (IC50), 1a, type 1a enzyme 1.5 μg/ml, 25° C., 60 min. In outline: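 His-tagged NS5B, C-terminal 47 residues deleted, type 1a at 1.5 μg/ml, with 5 μg/ml HCV 3′UTR substrate RNA, 50 μM ATP/GTP/CTP, 2 μM UTP plus [3H]UTP, pH 7.5 Tris, 5 mM MgCl2; 60 min at 25° C. TCA-precipitated RNA counted by scintillation; IC50 from radioactivity with vs. without compound.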

By IC50 is commonly meant the concentration needed to halve the response being measured. Regarding `CC(C)c1ccc(CNC(=O)[C@H]2CN(C(=O)Cn3ccnc3)CCN2S(=O)(=O)c2ccc(C(F)(F)F)cc2)cc1` [Example 219, (R)-4-(2-imidazol-1-yl-acetyl)-1-(4-trifluoromethyl-benzenesulfonyl)-piperazine-2-carboxylic acid 4-isopropyl-benzylamide], the IC50 in assay [1] and in assay [2] was less than 100 nM each time.

Regarding `CC(C)c1ccc(CNC(=O)[C@H]2CN(C(=O)Cn3ccnn3)CCN2S(=O)(=O)c2ccc(C(F)(F)F)cc2)cc1` [Example 220, (R)-4-(2-[1,2,3]triazol-1-yl-acetyl)-1-(4-trifluoromethyl-benzenesulfonyl)-piperazine-2-carboxylic acid 4-isopropyl-benzylamide], the IC50 in assay [1] and in assay [2] was less than 100 nM throughout.

In the case of `COc1ccc(S(=O)(=O)N2CCN(C(C)=O)C[C@@H]2C(=O)NCc2ccc(C(C)C)cc2)cc1CC(=O)O` [Example 221, {5-[(R)-4-acetyl-2-(4-isopropyl-benzylcarbamoyl)-piperazine-1-sulfonyl]-2-methoxy-phenyl}-acetic acid], the IC50 in assay [1] and in assay [2] was more than 1000 nM throughout.

With `COc1ccc(S(=O)(=O)N2CCN(C(C)=O)C[C@@H]2C(=O)NCc2ccc(C(C)C)cc2)cc1CCC(=O)O` [Example 222, 3-{5-[(R)-4-acetyl-2-(4-isopropyl-benzylcarbamoyl)-piperazine-1-sulfonyl]-2-methoxy-phenyl}-propionic acid], the IC50 in assay [1] and in assay [2] was 100 to 1000 nM each time.

On to `COC(=O)C(C)(C)c1ccc(CNC(=O)[C@H]2CN(C(C)=O)CCN2S(=O)(=O)c2ccc(C(C)C)cc2)cc1` [Example 223, 2-[4-({[(R)-4-acetyl-1-(4-isopropyl-benzenesulfonyl)-piperazine-2-carbonyl]-amino}-methyl)-phenyl]-2-methyl-propionic acid methyl ester], for which the IC50 in assay [1] and in assay [2] was 100 to 1000 nM throughout.

Consider `CC(=O)N1CCN(S(=O)(=O)c2ccc(C(C)C)cc2)[C@@H](C(=O)NCc2ccc(CCO)cc2)C1` [Example 224, (R)-4-acetyl-1-(4-isopropyl-benzenesulfonyl)-piperazine-2-carboxylic acid 4-(2-hydroxy-ethyl)-benzylamide], for which the half-inhibitory concentration (IC50) in assay [1] and in assay [2] was more than 1000 nM throughout.

In the case of `CC(C)c1ccc(CNC(=O)[C@H]2CN(C(=O)CN)CCN2S(=O)(=O)c2ccc(C(F)(F)F)cc2)cc1` [Example 225, (R)-4-(2-amino-acetyl)-1-(4-trifluoromethyl-benzenesulfonyl)-piperazine-2-carboxylic acid 4-isopropyl-benzylamide hydrochloride], the IC50 in assay [1] and in assay [2] was 100 to 1000 nM throughout.

As to `CC(=O)N1CCN(S(=O)(=O)c2ccc(C(C)C)cc2)[C@@H](C(=O)NCc2ccc(CO)cc2)C1` [Example 226, (R)-4-acetyl-1-(4-isopropyl-benzenesulfonyl)-piperazine-2-carboxylic acid 4-hydroxymethyl-benzylamide], the IC50 in assay [1] and in assay [2] was more than 1000 nM in each case.

For `CSc1ccc(CNC(=O)[C@H]2CN(C(C)=O)CCN2S(=O)(=O)c2ccc(C(C)C)cc2)cc1` [Example 227, (R)-4-acetyl-1-(4-isopropyl-benzenesulfonyl)-piperazine-2-carboxylic acid 4-methylsulfanyl-benzylamide], the IC50 in assay [1] and in assay [2] was 100 to 1000 nM throughout.

On to `CC(C)c1ccc(CNC(=O)[C@H]2CN(C(=O)Cn3cccn3)CCN2S(=O)(=O)c2ccc(C(F)(F)F)cc2)cc1` [Example 228, (R)-4-(2-pyrazol-1-yl-acetyl)-1-(4-trifluoromethyl-benzenesulfonyl)-piperazine-2-carboxylic acid 4-isopropyl-benzylamide], for which the IC50 in assay [1] and in assay [2] was 100 to 1000 nM throughout.

`CC(C)c1ccc(CNC(=O)[C@H]2CN(C(=O)Cn3cncn3)CCN2S(=O)(=O)c2ccc(C(F)(F)F)cc2)cc1` [Example 229, (R)-4-(2-[1,2,4]triazol-1-yl-acetyl)-1-(4-trifluoromethyl-benzenesulfonyl)-piperazine-2-carboxylic acid 4-isopropyl-benzylamide]: the IC50 in assay [1] and in assay [2] was less than 100 nM in each case.

Regarding `CC(C)c1ccc(CNC(=O)[C@H]2CN(C(=O)Cn3cnnc3)CCN2S(=O)(=O)c2ccc(C(F)(F)F)cc2)cc1` [Example 230, (R)-4-(2-[1,2,4]triazol-4-yl-acetyl)-1-(4-trifluoromethyl-benzenesulfonyl)-piperazine-2-carboxylic acid 4-isopropyl-benzylamide], the IC50 in assay [1] and in assay [2] was less than 100 nM throughout.

Consider `CC(=O)N1CCN(S(=O)(=O)c2ccc(C(C)C)cc2)[C@@H](C(=O)NCc2ccc(C(C)(C)C(=O)O)cc2)C1` [Example 231, 2-[4-({[(R)-4-acetyl-1-(4-isopropyl-benzenesulfonyl)-piperazine-2-carbonyl]-amino}-methyl)-phenyl]-2-methyl-propionic acid], for which the IC50 in assay [1] and in assay [2] was more than 1000 nM in each case.

For `CCc1ccc(CNC(=O)[C@H]2CN(C(C)=O)CCN2S(=O)(=O)c2ccc(C(C)C)cc2)cc1` [Example 232, (R)-4-acetyl-1-(4-isopropyl-benzenesulfonyl)-piperazine-2-carboxylic acid 4-ethyl-benzylamide], the IC50 in assay [1] and in assay [2] was 100 to 1000 nM each time.

On to `CC(=O)N1CCN(S(=O)(=O)c2ccc(C(C)C)cc2)[C@@H](C(=O)NCc2ccc(C(C)(C)C(=O)N(C)C)cc2)C1` [Example 233, (R)-4-acetyl-1-(4-isopropyl-benzenesulfonyl)-piperazine-2-carboxylic acid 4-(1-dimethylcarbamoyl-1-methyl-ethyl)-benzylamide], for which the half-maximal inhibitory concentration (IC50) in assay [1] and in assay [2] was more than 1000 nM throughout.

On to `CC(=O)N1CCN(S(=O)(=O)c2ccc(C(C)C)cc2)[C@@H](C(=O)NCc2ccc(C3(CO)CC3)cc2)C1` [Example 234, (R)-4-acetyl-1-(4-isopropyl-benzenesulfonyl)-piperazine-2-carboxylic acid 4-(1-hydroxymethyl-cyclopropyl)-benzylamide], for which the IC50 in assay [1] and in assay [2] was more than 1000 nM throughout.

On to `COC(=O)c1cc(S(=O)(=O)N2CCN(C(C)=O)C[C@@H]2C(=O)NCc2ccc(C(C)C)cc2)ccc1OC` [Example 235, 5-[(R)-4-acetyl-2-(4-isopropyl-benzylcarbamoyl)-piperazine-1-sulfonyl]-2-methoxy-benzoic acid methyl ester], for which the 50% inhibitory concentration (IC50) in assay [1] and in assay [2] was more than 1000 nM each time.

`CCc1cc(S(=O)(=O)N2CCN(C(C)=O)C[C@@H]2C(=O)NCc2ccc(C(C)C)cc2)ccc1OC` [Example 236, (R)-4-acetyl-1-(3-ethyl-4-methoxy-benzenesulfonyl)-piperazine-2-carboxylic acid 4-isopropyl-benzylamide]: the IC50 in assay [1] and in assay [2] was 100 to 1000 nM in each case.

On to `CC(=O)N1CCN(S(=O)(=O)c2ccc(CC(C)(C)C)cc2)[C@@H](C(=O)NCc2ccc(C(C)C)cc2)C1` [Example 237, (R)-4-acetyl-1-[4-(2,2-dimethyl-propyl)-benzenesulfonyl]-piperazine-2-carboxylic acid 4-isopropyl-benzylamide], for which the IC50 in assay [1] and in assay [2] was less than 100 nM each time.

Take `COC(=O)COc1ccc(S(=O)(=O)N2CCN(C(C)=O)C[C@@H]2C(=O)NCc2ccc(C(C)C)cc2)cc1` [Example 238, {4-[(R)-4-acetyl-2-(4-isopropyl-benzylcarbamoyl)-piperazine-1-sulfonyl]-phenoxy}-acetic acid methyl ester]: the IC50 in assay [1] is 100 to 1000 nM; in assay [2] it was more than 1000 nM.

In the case of `COc1ccc(S(=O)(=O)N2CCN(C(C)=O)C[C@@H]2C(=O)NCc2ccc(C(C)C)cc2)cc1C#N` [Example 239, (R)-4-acetyl-1-(3-cyano-4-methoxy-benzenesulfonyl)-piperazine-2-carboxylic acid 4-isopropyl-benzylamide], the IC50 is 100 to 1000 nM in assay [1] and more than 1000 nM in assay [2].

Consider `COc1ccc(S(=O)(=O)N2CCN(C(C)=O)C[C@@H]2C(=O)NCc2ccc(C(C)C)cc2)cc1C(C)(C)C` [Example 240, (R)-4-acetyl-1-(3-tert-butyl-4-methoxy-benzenesulfonyl)-piperazine-2-carboxylic acid 4-isopropyl-benzylamide], for which the values for the IC50 in assay [1] and in assay [2] were less than 100 nM and 100 to 1000 nM, respectively.

In the case of `COc1ccc(S(=O)(=O)N2CCN(C(C)=O)C[C@@H]2C(=O)NCc2ccc(C(C)C)cc2)cc1C1CCCC1` [Example 241, (R)-4-acetyl-1-(3-cyclopentyl-4-methoxy-benzenesulfonyl)-piperazine-2-carboxylic acid 4-isopropyl-benzylamide], the IC50 in assay [1] and in assay [2] was 100 to 1000 nM throughout.

As to `CC(C)c1ccc(CNC(=O)[C@H]2CN(C(=O)Cn3nccn3)CCN2S(=O)(=O)c2ccc(C(F)(F)F)cc2)cc1` [Example 242, (R)-4-(2-[1,2,3]triazol-2-yl-acetyl)-1-(4-trifluoromethyl-benzenesulfonyl)-piperazine-2-carboxylic acid 4-isopropyl-benzylamide], the 50% inhibitory concentration (IC50) in assay [1] and in assay [2] was 100 to 1000 nM each time.
